# Reference: US20110097385A1, “Delivery System for Drug and Cell Therapy” (TTDC BIO L.P., priority 2003, published 2011)
# Columns and labels:
# [1] = tested on: mice; experiment: Blood glucose in mice after injected insulin with or without crystallized dextran microparticles; format: in vivo; details: mouse
# Method: The suspension was prepared as follows. 5.0 g of Dextran T10 (Pharmacia, Uppsala, Sweden) was dissolved in 20.0 g of water. The solution was filtered through a 0.22 μm filter (Millipore, Bedford, Mass.) and freeze dried. 3.0 g of the resulting powder was dissolved in 3.0 g of sterile water and placed in box at temperature 60° C. […] Finally, the produced crystallized dextran microparticles suspension was mixed with aqueous insulin solution and used in the experiment with mice. Samples of the suspension were introduced into the mice's legs and samples of animal blood were taken from each mouse's tail and analyzed for glucose concentrations.
# In comparative example 15, no insulin was injected into the mouse.
# [2] = tested on: mouse; experiment: Blood glucose in mouse after subcutaneous two phase composition or insulin alone; format: in vivo; details: 0.5 UI insulin subcutaneously
# Method: 0.05 ml of the PEG and insulin solution is mixed with 0.15 ml of the microparticle and dextran suspension to form a two phase composition or mixture. 0.02 ml of the two phase mixture containing 0.5 UI of insulin is injected subcutaneously into mouse.
# [3] = tested on: humans; details: in humans, company information (Novo Nordisk); cited from earlier work
# [4] = tested on: Chinchilla rabbits; experiment: Blood glucose and duration of efficacy in rabbits after subcutaneous insulin formulations; details: rabbit, 8 UI subcutaneously
# Method: Samples of the formulation were subcutaneously injected into the rabbits. […] Samples of animal blood were taken from the rabbit's ear vein and analyzed for glucose concentration. Blood glucose concentration was measured with a glucose analyzer (One-Touch® Lifescan, Johnson & Johnson, Milpitas, Calif., USA) after proper calibration.
# In comparative examples 23 and 24, two intact rabbits were not provided any insulin.
# [5] = insulin 0.5 UI injected, listed as 16
# [6] = insulin 0.5 UI injected, listed as 21
substance,measurement,setting,value
"Actrapid HM®: short-acting human recombinant insulin of Novo Nordisk, injected alone; Ex 21 is the average of 16 and 17",change of blood glucose level from 120 minutes to 390 minutes after injection,[1]; insulin 0.5 UI,did substantially increase
same,glucose 0 min,[1]; insulin 0.5 UI injected,8.1 mmol/L
same,glucose 0 min,[1]; [5],5.9 mmol/L
same,glucose 0 min,[1]; [6],7 mmol/L
same,glucose 15 min,[1]; insulin 0.5 UI injected,3.8 mmol/L
same,glucose 15 min,[1]; [5],3.3 mmol/L
same,glucose 15 min,[1]; [6],3.6 mmol/L
same,glucose 30 min,[1]; insulin 0.5 UI injected,2.8 mmol/L
same,glucose 30 min,[1]; [5],2.7 mmol/L
same,glucose 30 min,[1]; [6],2.8 mmol/L
same,glucose 45 min,[1]; insulin 0.5 UI injected,1.9 mmol/L
same,glucose 45 min,[1]; [5],1.8 mmol/L
same,glucose 45 min,[1]; [6],1.9 mmol/L
same,glucose 120 min,"[1]; insulin 0.5 UI injected, 120 min",0.9 mmol/L
same,glucose 210 min,[1]; insulin 0.5 UI injected,3.7 mmol/L
same,glucose 210 min,[1]; [5],3.5 mmol/L
same,glucose 210 min,[1]; [6],3.6 mmol/L
same,glucose 270 min,[1]; insulin 0.5 UI injected,3.4 mmol/L
same,glucose 270 min,[1]; [5],3.0 mmol/L
same,glucose 270 min,[1]; [6],3.2 mmol/L
same,glucose 390 min,[1]; insulin 0.5 UI injected,3.5 mmol/L
same,glucose 390 min,[1]; [5],3.2 mmol/L
same,glucose 390 min,[1]; [6],3.4 mmol/L
same,glucose 15 min,[2]; 15 min,3.7 mmol/L
same,glucose 30 min,[2]; 30 min,2.3 mmol/L
same,glucose 45 min,[2]; 45 min,1.7 mmol/L
same,glucose 60 min,[2]; 60 min,2.9 mmol/L
same,glucose 120 min,[2]; 120 min,6.7 mmol/L
same,advertised duration of efficacy,[3],eight
"Monotard HM®: long-acting insulin of Novo Nordisk (40 UI/ml), injected subcutaneously alone at 8 UI",advertised duration of efficacy,[3],twenty four
same,glucose 0 hours,[4]; 0 hours,5.4 mmol/L
same,glucose 0.5 hours,[4]; listed as 25,5.8 mmol/L
same,glucose 0.5 hours,[4]; listed as 26,5.0 mmol/L
same,glucose 1 hour,[4]; listed as 25,3.8 mmol/L
same,glucose 1 hour,[4]; listed as 26,4.2 mmol/L
same,glucose 1.5 hours,[4]; listed as 25,3.2 mmol/L
same,glucose 1.5 hours,[4]; listed as 26,2.9 mmol/L
same,glucose 2 hours,[4]; listed as 25,2.4 mmol/L
same,glucose 2 hours,[4]; listed as 26,2.5 mmol/L
same,glucose 16 hours,[4]; listed as 25,3.9 mmol/L
same,glucose 16 hours,[4]; listed as 26,4.0 mmol/L
same,glucose 24 hours,[4]; listed as 25,5.6 mmol/L
same,glucose 24 hours,[4]; listed as 26,5.1 mmol/L
same,glucose […],[4]; listed as 25,2.6 mmol/L
same,glucose […],[4]; listed as 26,2.4 mmol/L
